Data: BindingDB's records for doi:10.1021/jm8011905 (National Taiwan University, 2009)
pIC50: −log10 of the molar value.

Target: Genome polyprotein (Hepatitis C virus genotype 1b (isolate Taiwan), UniProt P29846)
Experiment: Fluorescence Resonant Energy Transfer (FRET) Helicase Assay
Settings: pH 7; 22 °C
Description: The enzyme was assayed the DNA helicase activity by using DNA substrate (annealed BHQ1-labeled release strand and FITC-labeled template strand) in the presence of test compound. The substrate was monitored by the fluorescence quenching of FITC. The assay mixture was added to a 384-well microplate and monitored continuously at an excitation of 485 nm and an emission of 518 nm using a Fluoroskan Ascent microplate fluorescence reader (LabSystems, VA). The original data were normalized by the formula of relative helicase activity (%). When the inhibition of helicase activity was more than 50% at a concentration of 100 uM, the IC50 values were determined by curve fitting using SigmaPlot2000 of logistic with three parameters.

Sequence of Genome polyprotein (P29846 1027-1657 limits assumed): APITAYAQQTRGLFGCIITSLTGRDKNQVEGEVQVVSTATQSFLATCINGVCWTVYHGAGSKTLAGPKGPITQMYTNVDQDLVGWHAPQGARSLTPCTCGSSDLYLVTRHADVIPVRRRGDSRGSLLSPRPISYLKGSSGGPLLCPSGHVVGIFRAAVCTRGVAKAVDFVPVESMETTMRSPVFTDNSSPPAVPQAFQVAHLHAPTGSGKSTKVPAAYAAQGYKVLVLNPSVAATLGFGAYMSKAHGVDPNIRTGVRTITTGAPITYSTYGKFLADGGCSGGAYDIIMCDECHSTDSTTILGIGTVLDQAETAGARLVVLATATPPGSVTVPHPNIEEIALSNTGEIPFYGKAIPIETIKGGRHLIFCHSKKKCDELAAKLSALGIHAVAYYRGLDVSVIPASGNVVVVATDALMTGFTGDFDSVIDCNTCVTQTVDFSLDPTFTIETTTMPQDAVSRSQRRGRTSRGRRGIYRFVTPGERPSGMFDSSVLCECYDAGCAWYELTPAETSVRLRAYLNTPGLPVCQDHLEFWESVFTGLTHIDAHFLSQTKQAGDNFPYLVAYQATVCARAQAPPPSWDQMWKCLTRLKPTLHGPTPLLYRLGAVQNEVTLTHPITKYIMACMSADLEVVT

- pIC50: 4.40
SMILES: O=S(=O)(O)c1ccc(Nc2ccc([C+](c3ccc(Nc4cccc(S(=O)(=O)O)c4)cc3)c3ccc(Nc4cccc(S(=O)(=O)O)c4)cc3)cc2)cc1 [BHT, 1]
